Laboratory results: patent US20260028354A1, “TETRAHYDRONAPHTHALENE DERIVATIVES AS ESTROGEN RECEPTOR DEGRADERS” (REGENT OF THE UNIVERSITY OF MICHIGAN, priority 2022, published 2026)
Like-named read-outs stand apart in the source and are kept apart here.

Assays:
[1] = biological target: CRBN/DDB1 (Homo sapiens (Human), UniProt Q96SW2); assay type: binding; conditions: His tagged CRBN+DDB1, Cy5-labeled Thalidomide probe, one hour; read-out: CRBN HTRF IC50
Description: The binding potency was determined using HTRF assay technology (Perkin Elmer). Compounds were serially diluted in DMSO and […] volume was transferred to white 384-well plate.

[2] = biological target: ER in MCF-7 cells (Homo sapiens (Human), UniProt P03372); experiment: In-cell Western (ICW) ER degradation assay in MCF-7 cells; assay type: cell-based; conditions: for DC50: MCF-7, ER degradation, read-out: MCF7 DC50; for MCF7 Dmax: MCF-7, maximal ER degradation
ER in MCF-7 cells, sequence (P03372 whole entry): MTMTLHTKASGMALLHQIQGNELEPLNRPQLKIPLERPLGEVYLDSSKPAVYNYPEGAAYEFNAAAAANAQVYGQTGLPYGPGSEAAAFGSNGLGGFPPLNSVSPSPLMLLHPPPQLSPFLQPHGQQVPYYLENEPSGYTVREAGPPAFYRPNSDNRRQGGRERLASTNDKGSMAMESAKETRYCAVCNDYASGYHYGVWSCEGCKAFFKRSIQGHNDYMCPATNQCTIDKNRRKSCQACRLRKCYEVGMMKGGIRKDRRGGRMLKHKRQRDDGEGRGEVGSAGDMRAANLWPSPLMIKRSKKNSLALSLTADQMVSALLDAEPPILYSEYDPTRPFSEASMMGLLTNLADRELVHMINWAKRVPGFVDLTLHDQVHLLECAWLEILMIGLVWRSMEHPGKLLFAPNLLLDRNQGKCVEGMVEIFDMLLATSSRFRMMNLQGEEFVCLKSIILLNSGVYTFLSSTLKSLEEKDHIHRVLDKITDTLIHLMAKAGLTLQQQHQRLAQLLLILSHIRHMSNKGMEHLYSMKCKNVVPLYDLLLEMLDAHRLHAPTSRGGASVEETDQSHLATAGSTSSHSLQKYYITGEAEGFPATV

[3] = biological target: ER in T47D cells (Homo sapiens (Human), UniProt P03372); experiment: In-cell Western (ICW) ER degradation assay in T47D cells; assay type: cell-based; conditions: for DC50: ER degradation
ER in T47D cells, sequence (P03372 whole entry): as above

[4] = MCF7, MCF-7, maximal ER degradation, 16 hrs treatment, read-out: MCF7 Dmax
[5] = maximal ER degradation, 16 hrs treatment, read-out: T47D Dmax
[6] = MCF7, read-out: MCF7 Dmax, MCF-7, maximal ER degradation, 16 hrs treatment
[7] = read-out: T47D Dmax, T47D, maximal ER degradation, 16 hrs treatment
[8] = maximal ER degradation, 16 hrs treatment

CRBN/DDB1, sequence (Q96SW2 whole entry, species assumed): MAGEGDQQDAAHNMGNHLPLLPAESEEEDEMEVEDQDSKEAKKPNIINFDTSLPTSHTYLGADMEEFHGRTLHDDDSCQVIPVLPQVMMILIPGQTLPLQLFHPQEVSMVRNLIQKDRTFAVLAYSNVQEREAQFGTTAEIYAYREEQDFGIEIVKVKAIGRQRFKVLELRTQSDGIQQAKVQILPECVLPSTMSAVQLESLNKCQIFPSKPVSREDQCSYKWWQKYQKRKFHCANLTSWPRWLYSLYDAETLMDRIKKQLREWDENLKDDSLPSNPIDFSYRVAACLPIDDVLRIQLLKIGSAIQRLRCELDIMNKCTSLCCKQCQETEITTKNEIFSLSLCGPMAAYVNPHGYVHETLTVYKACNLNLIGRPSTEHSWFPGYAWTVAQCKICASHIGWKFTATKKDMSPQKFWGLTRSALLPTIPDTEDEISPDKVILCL
CRBN/DDB1, sequence (Q16531 whole entry partner, species assumed): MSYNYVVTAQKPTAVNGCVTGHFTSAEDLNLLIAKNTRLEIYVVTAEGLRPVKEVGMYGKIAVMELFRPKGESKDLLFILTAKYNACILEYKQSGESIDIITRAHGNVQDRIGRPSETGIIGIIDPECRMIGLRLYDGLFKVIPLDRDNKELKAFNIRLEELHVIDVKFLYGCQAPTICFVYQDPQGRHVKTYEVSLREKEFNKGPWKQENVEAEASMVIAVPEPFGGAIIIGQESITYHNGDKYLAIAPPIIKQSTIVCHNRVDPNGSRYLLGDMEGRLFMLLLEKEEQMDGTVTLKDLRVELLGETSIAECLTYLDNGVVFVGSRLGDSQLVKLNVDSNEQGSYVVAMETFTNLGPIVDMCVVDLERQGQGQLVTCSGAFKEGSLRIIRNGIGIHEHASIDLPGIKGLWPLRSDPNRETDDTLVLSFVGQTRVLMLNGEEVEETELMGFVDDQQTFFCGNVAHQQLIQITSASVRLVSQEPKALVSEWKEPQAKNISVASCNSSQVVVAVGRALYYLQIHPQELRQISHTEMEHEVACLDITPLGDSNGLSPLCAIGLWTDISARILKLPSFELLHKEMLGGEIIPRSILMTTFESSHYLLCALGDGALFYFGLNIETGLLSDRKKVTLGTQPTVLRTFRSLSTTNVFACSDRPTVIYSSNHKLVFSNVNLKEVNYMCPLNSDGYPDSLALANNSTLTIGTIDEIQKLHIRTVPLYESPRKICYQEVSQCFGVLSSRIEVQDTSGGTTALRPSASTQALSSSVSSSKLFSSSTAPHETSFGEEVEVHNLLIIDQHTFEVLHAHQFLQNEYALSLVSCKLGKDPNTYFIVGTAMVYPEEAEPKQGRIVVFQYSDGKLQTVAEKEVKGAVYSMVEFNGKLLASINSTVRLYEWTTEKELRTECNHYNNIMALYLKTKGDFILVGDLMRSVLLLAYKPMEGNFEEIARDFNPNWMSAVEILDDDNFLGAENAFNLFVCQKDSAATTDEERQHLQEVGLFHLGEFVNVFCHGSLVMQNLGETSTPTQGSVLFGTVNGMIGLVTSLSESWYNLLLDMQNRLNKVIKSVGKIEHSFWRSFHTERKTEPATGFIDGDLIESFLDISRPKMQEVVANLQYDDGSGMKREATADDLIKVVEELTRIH

## COc1cc(N2CCC3(CC2)CC(CN2CCN4c5ccc(C(=O)N[C@H]6CCC(=O)NC6=O)nc5OCC4C2)C3)ccc1[C@@H]1c2ccc(O)cc2CC[C@@H]1c1ccccc1 (stereo in doubt) [Compound A108, (S)-N-((S)-2,6-dioxopiperidin-3-yl)-3-((7-(4-((1S,2S)-6-hydroxy-2-phenyl-1,2,3,4-tetra-hydronaphthalen-1-yl)-3-meth-oxyphenyl)-7-azaspiro[3.5]nonan-2-yl)methyl)-1,2,3,4,4a, 5-hexahydropyrazino[1,2-d] pyrido[2,3-b][1,4]oxazine-8-carboxamide]
[1]
  IC50: 500 to 5000 nM
[2]; [4]
  Dmax: 50 to 75%
[2]; 16 hrs treatment
  DC50: < 1 nM
[3]; 16 hrs treatment
  DC50: < 1 nM
[3]; [5]
  Dmax: 50 to 75%

## COc1cc(C(=O)NC2CCC(=O)NC2=O)ncc1N1CCN(CC2CCN(c3ccc([C@@H]4c5ccc(O)cc5CC[C@@H]4c4ccccc4)cc3)CC2)CC1 (stereo partly drawn) [Compound A5, N-(2,6-dioxopiperidin-3-yl)-5-(4-((1-(4-((1R,2S)-6-hydroxy-2-phenyl-1,2,3,4-tetrahydro-naphthalen-1-yl)phenyl)piper-idin-4-yl)methyl)piperazin-1-yl)-4-methoxypicolinamide]
[1]
  IC50: > 5000 nM
[2]; [4]
  Dmax: 50 to 75%
[2]; 16 hrs treatment
  DC50: < 1 nM
[3]; 16 hrs treatment
  DC50: < 1 nM
[3]; [5]
  Dmax: 25 to 50%

## O=C1CC[C@H](NC(=O)c2ccc3c(n2)OC[C@H]2CN(C[C@@H]4COC5(CCN(c6ccc([C@@H]7c8ccc(O)cc8CC[C@@H]7c7ccccc7)cc6)CC5)C4)CCN32)C(=O)N1 (single isomer, unassigned) [Compound A14]
[1]
  IC50: 500 to 5000 nM
[2]; [4]
  Dmax: 50 to 75%
[2]; 16 hrs treatment
  DC50: < 1 nM
[3]; 16 hrs treatment
  DC50: < 1 nM
[3]; [5]
  Dmax: 50 to 75%

## COc1cc(N2CCC3(CC2)CC(CN2CCN4c5ccc(C(=O)N[C@H]6CCC(=O)NC6=O)nc5OC[C@H]4C2)C3)c(F)cc1[C@@H]1c2ccc(O)cc2CC[C@@H]1c1ccccc1 [Compound A111, (R)-N-((S)-2,6-dioxopiperidin-3-yl)-3-((7-(2-fluoro-4-((1S,2S)-6-hydroxy-2-phenyl-1,2,3,4-tetrahydronaphthalen-1-yl)-5-methoxyphenyl)-7-azaspiro[3.5]nonan-2-yl)methyl)-1,2,3,4,4a,5-hexahydropyrazino[1,2-d]pyrido[2,3-b][1,4]oxazine-8-carboxamide]
[1]
  IC50: > 5000 nM
[2]; [4]
  Dmax: 50 to 75%
[2]; 16 hrs treatment
  DC50: 1 to 10 nM
[3]; 16 hrs treatment
  DC50: 1 to 10 nM
[3]; [5]
  Dmax: > 75%

## O=C1CC[C@H](NC(=O)c2ccc3c(n2)OC[C@H]2CN(C[C@H]4COC5(CCN(c6ccc([C@H]7c8ccc(O)cc8CC[C@H]7c7ccccc7)cc6)CC5)C4)CCN32)C(=O)N1 (single isomer, unassigned) [Compound A15]
[1]
  IC50: 500 to 5000 nM
[2]; [4]
  Dmax: 25 to 50%
[2]; 16 hrs treatment
  DC50: 10 to 100 nM
[3]; 16 hrs treatment
  DC50: 10 to 100 nM
[3]; [5]
  Dmax: 25 to 50%

## COc1cc(N2CCC3(CC2)CC(CN2CCN4c5ccc(C(=O)N[C@H]6CCC(=O)NC6=O)nc5OC[C@@H]4C2)C3)c(F)cc1[C@@H]1c2ccc(O)cc2CC[C@@H]1c1ccccc1 [Compound A104, (S)-N-((S)-2,6-dioxopiperidin-3-yl)-3-((7-(2-fluoro-4-((1S,2S)-6-hydroxy-2-phenyl-1,2,3,4-tetrahydronaphthalen-1-yl)-5-methoxyphenyl)-7-azaspiro[3.5]nonan-2-yl)methyl)-1,2,3,4,4a,5-hexahydropyrazino[1,2-d]pyrido[2,3-b][1,4]oxazine-8-carboxamide]
[1]
  IC50: > 5000 nM
[2]; [4]
  Dmax: 50 to 75%
[2]; 16 hrs treatment
  DC50: 1 to 10 nM
[3]; 16 hrs treatment
  DC50: < 1 nM
[3]; [5]
  Dmax: > 75%

## COc1cc(N2CCC(CN3CC[C@@]4(c5ccc(N[C@H]6CCC(=O)NC6=O)cc5)C(C3)C4(F)F)CC2)ccc1[C@@H]1c2ccc(O)cc2CC[C@@H]1c1ccccc1 (stereo partly drawn) [Compound A92, (3S)-3-((4-((1R)-7,7-difluoro-3-((1-(4-((1S,2S)-6-hydroxy-2-phenyl-1,2,3,4-tetrahydronaph-thalen-1-yl)-3-methoxyphenyl)-piperidin-4-yl)methyl)-3-azabi-cyclo[4.1.0]heptan-6-yl)phen-yl)amino)piperidine-2,6-dione]
[1]
  IC50: > 5000 nM
[2]; [6]
  Dmax: 25 to 50%
[2]; 16 hrs treatment
  DC50: < 1 nM
[3]; 16 hrs treatment
  DC50: 1 to 10 nM
[3]; [7]
  Dmax: 25 to 50%

## COc1cc(N2CCC3(CC2)CC(CN2CCN4c5ccc6c(c5OC[C@H]4C2)CN([C@H]2CCC(=O)NC2=O)C6=O)C3)ccc1[C@@H]1c2ccc(O)cc2CC[C@@H]1c1ccccc1 (single isomer, unassigned) [Compound A10]
[1]
  IC50: < 50 nM
[2]; [4]
  Dmax: > 75%
[2]; 16 hrs treatment
  DC50: < 1 nM
[3]; 16 hrs treatment
  DC50: < 1 nM
[3]; [5]
  Dmax: > 75%

## O=C1CC[C@@H](Nc2ccc(C3CCN(C[C@H]4COC5(CCN(c6ccc([C@@H]7c8ccc(O)cc8CC[C@@H]7c7ccccc7)cc6)CC5)C4)CC3)cc2)C(=O)N1 (single isomer, unassigned) [Compound A51]
[1]
  IC50: 50 to 500 nM
[2]; [4]
  Dmax: < 25%
[2]; 16 hrs treatment
  DC50: > 100 nM
[3]; 16 hrs treatment
  DC50: > 100 nM
[3]; [5]
  Dmax: < 25%

## O=C1CC[C@@H](Nc2ccc([C@@]34CCN(CC5CC6(CCN(c7ccc([C@@H]8c9ccc(O)cc9CC[C@@H]8c8ccccc8)cc7)CC6)C5)C[C@@H]3C4(F)F)cc2)C(=O)N1 [Compound A67, (R)-3-((4-((1R,6R)-7,7-difluoro-3-((7-(4-((1R,2S)-6-hydroxy-2-phenyl-1,2,3,4-tetrahydronaphthalen-1-yl)-phenyl)-7-azaspiro[3.5]nonan-2-yl)methyl)-3-azabicyclo [4.1.0]heptan-6-yl)phenyl)-amino)piperidine-2,6-dione]
[1]
  IC50: > 5000 nM
[2]; [6]
  Dmax: 50 to 75%
[2]; 16 hrs treatment
  DC50: 1 to 10 nM
[3]; 16 hrs treatment
  DC50: 1 to 10 nM
[3]; [7]
  Dmax: 50 to 75%

## O=C1CC[C@H](N2Cc3c(ccc4c3OC[C@H]3CN(CC5CCC6(CC5)CN(c5ncc([C@H]7c8ccc(O)cc8CC[C@H]7c7ccccc7)cn5)C6)CCN43)C2=O)C(=O)N1 (single isomer, unassigned) [Compound A155]
[1]
  IC50: 50 to 500 nM
[2]; [4]
  Dmax: 25 to 50%
[2]; 16 hrs treatment
  DC50: 1 to 10 nM
[3]; 16 hrs treatment
  DC50: 10 to 100 nM
[3]; [5]
  Dmax: < 25%

## COc1cc(N2CCC3(CC2)CC(CN2CCC4(CC2)COc2c4ccc4c2CN([C@H]2CCC(=O)NC2=O)C4=O)CO3)ccc1[C@@H]1c2ccc(O)cc2CC[C@@H]1c1ccccc1 (stereo partly drawn) [Compound A55, (3S)-3-(1′-((8-(4-((1S,2S)-6-hydroxy-2-phenyl-1,2,3,4-tetrahydronaphthalen-1-yl)-3-methoxyphenyl)-1-oxa-8-azaspiro[4.5]decan-3-yl)meth-yl)-6-oxo-6,8-dihydro-2H,7H-spiro[furo[2,3-e]isoindole-3,4′-piperidin]-7-yl)piperidine-2,6-dione]
[1]
  IC50: < 50 nM
[2]; [6]
  Dmax: 25 to 50%
[2]; 16 hrs treatment
  DC50: 10 to 100 nM
[3]; 16 hrs treatment
  DC50: 1 to 10 nM
[3]; [7]
  Dmax: 50 to 75%

## O=C1CC[C@H](N2Cc3cc4c(cc3C2=O)OC[C@H]2CN(C[C@H]3COC5(CCN(c6ccc([C@H]7c8ccc(O)cc8CC[C@H]7c7ccccc7)cc6)CC5)C3)CCN42)C(=O)N1 (single isomer, unassigned) [Compound A19]
[1]
  IC50: 50 to 500 nM
[2]; [4]
  Dmax: 50 to 75%
[2]; 16 hrs treatment
  DC50: 1 to 10 nM
[3]; 16 hrs treatment
  DC50: 1 to 10 nM
[3]; [5]
  Dmax: 50 to 75%

## COc1cc(N2CCC3(CC2)CC(CN2CCN4c5ccc(C(=O)N[C@H]6CCC(=O)NC6=O)nc5OC[C@@H]4C2)C3)ccc1[C@H]1c2ccc(O)cc2CC[C@H]1c1ccccc1 (single isomer, unassigned) [Compound A107]
[1]
  IC50: > 5000 nM
[2]; [4]
  Dmax: 50 to 75%
[2]; 16 hrs treatment
  DC50: < 1 nM
[3]; 16 hrs treatment
  DC50: < 1 nM
[3]; [5]
  Dmax: 50 to 75%

## O=C1CC[C@H](N2Cc3c(ccc4c3OC[C@H]3CN(CC5COC6(C5)CN(c5ccc([C@@H]7c8ccc(O)cc8CC[C@@H]7c7ccccc7)cc5)C6)CCN43)C2=O)C(=O)N1 (single isomer, unassigned) [Compound A7]
[1]
  IC50: 500 to 5000 nM
[2]; 16 hrs treatment
  DC50: < 1 nM
  MCF7 Dmax: B (“B”: >50 and <75%)
[3]; 16 hrs treatment
  DC50: < 1 nM
[3]; [8]
  T47D Dmax: B (“B”: >50 and <75%)

## O=C1CC[C@H](Nc2ccc(C3CCN(C[C@H]4COC5(CCN(c6ccc([C@@H]7c8ccc(O)cc8CC[C@@H]7c7ccccc7)cc6)CC5)C4)CC3)cc2)C(=O)N1 (single isomer, unassigned) [Compound A27]
[1]
  IC50: 50 to 500 nM
[2]; [4]
  Dmax: 25 to 50%
[2]; 16 hrs treatment
  DC50: 10 to 100 nM
[3]; 16 hrs treatment
  DC50: > 100 nM
[3]; [5]
  Dmax: < 25%

## O=C1CC[C@H](Nc2ccc(C3CCN(C[C@@H]4COC5(CCN(c6ccc([C@@H]7c8ccc(O)cc8CC[C@@H]7c7ccccc7)cc6)CC5)C4)CC3)c(F)c2)C(=O)N1 (single isomer, unassigned) [Compound A61]
[1]
  IC50: 50 to 500 nM
[2]; [4]
  Dmax: < 25%
[2]; 16 hrs treatment
  DC50: > 100 nM
[3]; 16 hrs treatment
  DC50: > 100 nM
[3]; [5]
  Dmax: < 25%

## O=C1CC[C@H](N2Cc3c(ccc4c3OC[C@H]3CN(CC5CC6(CCN(c7ccc([C@H]8c9ccc(O)cc9CC[C@H]8c8ccccc8)cn7)CC6)C5)CCN43)C2=O)C(=O)N1 (single isomer, unassigned) [Compound A113]
[1]
  IC50: 50 to 500 nM
[2]; [4]
  Dmax: 25 to 50%
[2]; 16 hrs treatment
  DC50: 10 to 100 nM
[3]; 16 hrs treatment
  DC50: 10 to 100 nM
[3]; [5]
  Dmax: 25 to 50%

## O=C1CC[C@H](N2Cc3c(ccc4c3OC[C@H]3CN(CC5COC6(C5)CN(c5ccc([C@@H]7c8ccc(O)cc8CC[C@@H]7c7ccccc7)cc5)C6)CCN43)C2=O)C(=O)N1 (single isomer, unassigned) [Compound A40]
[1]
  IC50: < 50 nM
[2]; 16 hrs treatment
  DC50: 10 to 100 nM
  MCF7 Dmax: C (“C”: 25-50%)
[3]; 16 hrs treatment
  DC50: 10 to 100 nM
[3]; [8]
  T47D Dmax: C (“C”: 25-50%)
